{
  "source": "patent US12357695B2",
  "about": "“Peptides and nanoparticles for intracellular delivery of molecules” (AADIGEN, LLC, priority 2019, dated 2025)",
  "key": {"[1]": {"test_system": "293T cells", "test": "Cellular delivery of pGL4 plasmid DNA expressing Luciferase, luciferase expression at 72 hrs", "assay_type": "cell-based", "details": "for luciferase expression / reduction of ADGN-100 efficiency by modification: 0.15 μg pGL4 plasmid; for reduction of ADGN-100 efficiency by modification: absence of serum or heparan sulfate; for reduction of efficiency / luciferase expression in the presence of serum: complexes incubated 3 hrs in 25% serum prior transfection; for reduction of efficiency / luciferase expression in the presence of serum / reduction of efficiency / luciferase expression in heparan sulfate: pGL4 plasmid; for reduction of efficiency / luciferase expression in heparan sulfate: complexes incubated 3 hrs with heparan sulfate prior transfection", "description": "FIGS. 2A-2C show luciferase expression in 293T cells treated with ADGN-peptide/pGL4 plasmid DNA complexes. 293T cells cultured in 48 well plates were transfected with ADGN-peptide nanoparticles. ADGN-100, ADGN-106, ADGN-100RI, ADGN-106RI, ADGN-100 Stearyl, ADGN-Hydro1, ADGN-Hydro2, ADGN-Hydro3, ADGN-Hydro4, ADGN-Hydro5, and ADGN-Hydro6 containing 0.17 μg pGL4 plasmid DNA were formed in sterile water, diluted in sterile water containing 5% Sucrose. ADGN-peptide nanoparticles were evaluated prior (FIG. 2A) and after filtration with 0.45 μm PES filters (FIG. 2B). FIG. 2C impact of peGylated ADGN-100 on the transfection efficiency. pGL4 luc plasmid (0.15 μg) were associated to ADGN-100 solution containing 5 to 50% of ADGN-100-PEG or to ADGN-100PEG. ADGN/pGL4 plasmid DNA complexes were incubated for 3 hrs in the presence of either 25% serum or heparan sulfate prior transfection. Luciferase expression was monitored 72 hours post transfection and results were reported as RLU (luminescence):mg of protein.\nComplex formation with plasmid DNA. The following protocols were used for the transfection of 2-5 106 Cells or Cells at confluency of about 70-80% cultured in 24 well plates. ADGN peptide/plasmid DNA pGL4 particles were prepared at a 20:1 molar ratio of ADGN-Peptide/pGL4. using (0.2 μg). PGL4 plasmid (0.15 μg) was diluted in 20 μl of sterile water (GIBCO) at room temperature. 10 μl Final Peptide Solution was added to obtain a total volume of 20 μl. The volume was adjusted to 50 μl with sterile water and was mixed gently with vortex 1 min low speed and incubated 30 min at room temperature. Then the volume was made up to 100 μl by adding sterile water containing 5% sucrose, and the solution was mixed gently with vortex 1 min low speed and incubate 5 min at 37° C. and then was proceeded to cell transfection.\nTransfection protocol. Protocol is reported for 24 well plate format. Cells were cultured in Dulbecco's Modified Eagle's Medium (DMEM), supplemented with 2 mM glutamine, 1% antibiotics (streptomycin 10,000 μg/mL, penicillin, 10,000 IU/mL) and 10% (w/v) foetal calf serum (FCS), at 37° C. in a humidified atmosphere containing 5% CO2. 24 well plates seeded with 150,000 cells the day prior to transfection were grown to 50-60% confluence and set up to be at about 70% confluences at the time of transfection. Before transfection, cells were washed twice with DMEM. Cells were then overlaid with 0.1 ml of ADGN-peptide/cargo complex solution containing 0.25 μg mRNA, 0.15 μg plasmid DNA or 10-25 nM siRNA, mixed gently, and incubated for 10 min at 37° C. 0.2 mL of fresh DMEM, were added and cells were incubated for 20 min at 37° C. 1 mL of complete DMEM containing 15% FCS were then added in order to reach a final FCS concentration of 10%, without removing the overlay of ADGN-peptide/cargo complexes. Cells were returned to the incubator (37° C., 5% CO2) and 72 hrs post transfection.\nADGN-peptides were evaluated for cellular delivery of pGL4 plasmid DNA expressing Luciferase in 293T cells. Luc pGL4 plasmid (0.15 μg) in sterile water (GIBCO) were mixed with ADGN-100, ADGN-100RI, ADGN-106, ADGN-106RI, ADGN-100 Stearyl, ADGN-100Hydro1, ADGN-100Hydro2, ADGN-100Hydro4, ADGN-100Hydro3, ADGN-100Hydro5 and ADGN-100Hydro6. ADGN-peptide/mRNA complexes were filtered with 0.45 μm PES filter. In order to evaluate the stability of the ADGN/pGL4 plasmid complexes in high serum and cell culture conditions, the complexes were incubated for 3 hrs in the presence of either 25% serum or heparan sulfate prior transfection, then 293T cells were transfected and Luciferase expression was monitored at 72 hrs."}, "[2]": {"test_system": "mice", "test": "In vivo delivery of pGL4 plasmid DNA, intravenous administration, bioluminescence imaging", "details": "5 μg pGL4 plasmid; for increase of luciferase expression / efficiency relative to ADGN-100: all / different tissues", "description": "FIGS. 6A-6C show the potency of ADGN-peptide variants for in vivo delivery of Luciferase expressing plasmid pGL4 via intravenous administration in mice. ADGN-peptide/pGL4 particles containing 5 μg plasmid DNA were formed in sterile water, and then diluted in 5% sucrose. Mice received IV injection of 100 μl ADGN-peptide/plasmid complexes. pGL4 Luciferase expression was monitored by bioluminescence imaging after 12 h, 24h, 48h and 72h. […] Results were then expressed as values relative to day 0.\nStable ADGN-peptides/pGL4.11 DNA were evaluated for in vivo delivery of Luciferase mRNA via intravenous and intramuscular administrations. Animals were treated with single dose of pGL4.11 plasmid DNA of 5 μg. via IV and 2.5 μg via intramuscular administration.\npGL4.11 DNA plasmid (5 μg) in sterile water (GIBCO) were mixed with ADGN peptide (sterile water), volume for each sample was adjusted to 100 μl, with sterile water containing 5% Sucrose. Samples were mixed gently with vortex for 1 minute at low speed and incubated for 30 min at room temperature. Samples were filtered on 0.45 μm PES filters prior administration. For IV administration Mice received 100 μl IV injection of either ADGN-106/pGL4, ADGN-100/pGL4, ADGN-100RI/pGL4, ADGN-100-stearyl/PGL4, ADGN-100Hydro1/PGL4, ADGN-100Hydro2/PGL4, ADGN100 Hydro6/PGL4 or ADGN/PGL4 complexes containing 10% or 20% of ADGN-100PEG (3 animals per group). As control, mice from group 3 (2 animals per group) received IV injection of 100 μl of naked pGL4 plasmids (5 μg).\nLuciferase expression was monitored by bioluminescence. Bioluminescence imaging was performed after 12, 24, 48 and 72 hrs. Mice received an i.p. injection of 150 μg/g luciferin for noninvasive bioluminescence imaging (IVIS Kinetic; PerkinElmer, Waltham, MA, USA)."}},
  "note": "Square brackets hold non-standard residues; d marks the D form. Ends that are not written are not given here. Stearyl = stearyl group covalently linked to the N-terminus; Aun = NCCCCCCCCCCC(=O)O; βAla = NCCC(=O)O",
  "data": [
    {"substance": "akwllrwlsrwlrwlarwlr ([dA][dK][dW][dL][dL][dR][dW][dL][dS][dR][dW][dL][dR][dW][dL][dA][dR][dW][dL][dR]; also: retro-inverso) [ADGN-106-RI]", "values": [
      {"measurement": "luciferase expression", "setting": "[1]", "result": "poor luciferase expression"}
    ]},
    {"substance": "Stearyl-βA-KWRSALWRWRLWRVRSWSR-NH2 (Stearyl-[βAla]KWRSALWRWRLWRVRSWSR-NH2; not fully specified; printed as Stearyl-βA-KWRSALWRWRLWRVRSWSR-NH2) [ADGN-100 Stearyl]", "values": [
      {"measurement": "luciferase expression and tissues", "setting": "[2]", "result": "mainly observed in the liver and at lower level in the lung and the kidney"},
      {"measurement": "increase of luciferase expression / efficiency relative to ADGN-100", "setting": "[2]", "result": 2.7, "unit": "fold"},
      {"measurement": "reduction of ADGN-100 efficiency by modification", "setting": "[1]", "result": "do not affected"}
    ]},
    {"substance": "rswsrvrwlrwrwgasrwk ([dR][dS][dW][dS][dR][dV][dR][dW][dL][dR][dW][dR][dW]G[dA][dS][dR][dW][dK]; also: retro-inverso) [ADGN-100-RI]", "values": [
      {"measurement": "luciferase expression and tissues", "setting": "[2]", "result": "mainly observed in the liver and at lower level in the lung and the kidney"},
      {"measurement": "increase of luciferase expression / efficiency relative to ADGN-100", "setting": "[2]", "result": 4, "unit": "fold"},
      {"measurement": "reduction of ADGN-100 efficiency by modification", "setting": "[1]", "result": "do not affected"},
      {"measurement": "reduction of efficiency / luciferase expression in the presence of serum", "setting": "[1]", "result": 25, "unit": "%"},
      {"measurement": "reduction of efficiency / luciferase expression in heparan sulfate", "setting": "[1]", "result": "less than 10%"}
    ]},
    {"substance": "Ac-GYVS-Aun-KWRSALWRWRLWRVRSWSR-NH2 (Ac-GYVS[Aun]KWRSALWRWRLWRVRSWSR-NH2; SMILES CC(=O)NCC(=O)N[C@@H](Cc1ccc(O)cc1)C(=O)N[C@H](C(=O)N[C@@H](CO)C(=O)NCCCCCCCCCCC(=O)N[C@@H](CCCCN)C(=O)N[C@@H](Cc1c[nH]c2ccccc12)C(=O)N[C@@H](CCCNC(=N)N)C(=O)N[C@@H](CO)C(=O)N[C@@H](C)C(=O)N[C@@H](CC(C)C)C(=O)N[C@@H](Cc1c[nH]c2ccccc12)C(=O)N[C@@H](CCCNC(=N)N)C(=O)N[C@@H](Cc1c[nH]c2ccccc12)C(=O)N[C@@H](CCCNC(=N)N)C(=O)N[C@@H](CC(C)C)C(=O)N[C@@H](Cc1c[nH]c2ccccc12)C(=O)N[C@@H](CCCNC(=N)N)C(=O)N[C@H](C(=O)N[C@@H](CCCNC(=N)N)C(=O)N[C@@H](CO)C(=O)N[C@@H](Cc1c[nH]c2ccccc12)C(=O)N[C@@H](CO)C(=O)N[C@@H](CCCNC(=N)N)C(N)=O)C(C)C)C(C)C) [ADGN-100 hydro-6]", "values": [
      {"measurement": "luciferase expression and tissues", "setting": "[2]", "result": "mainly observed in the liver and at lower level in the lung and the kidney"},
      {"measurement": "increase of luciferase expression / efficiency relative to ADGN-100", "setting": "[2]", "result": 3.4, "unit": "fold"},
      {"measurement": "reduction of ADGN-100 efficiency by modification", "setting": "[1]", "result": "do not affected"}
    ]},
    {"substance": "βALWRALWRLWRSLWRLLWKA ([βAla]LWRALWRLWRSLWRLLWKA) [ADGN-106]", "values": [
      {"measurement": "luciferase expression and tissues", "setting": "[2]", "result": "no or minimal expression"},
      {"measurement": "luciferase expression", "setting": "[1]", "result": "poor luciferase expression"}
    ]},
    {"substance": "Ac-GYVS-(G)4-KWRSALWRWRLWRVRSWSR-NH2 (Ac-GYVSGGGGKWRSALWRWRLWRVRSWSR-NH2) [ADGN-100 hydro-2]", "values": [
      {"measurement": "luciferase expression and tissues", "setting": "[2]", "result": "negligible luciferase expression"},
      {"measurement": "reduction of efficiency / luciferase expression in the presence of serum", "setting": "[1]", "result": "do not significantly improved transfection"},
      {"measurement": "reduction of efficiency / luciferase expression in heparan sulfate", "setting": "[1]", "result": "do not significantly improved transfection"}
    ]},
    {"substance": "βAKWRSAGWRWRLW RVRSWSR (AKWRSAGWRWRLWRVRSWSR; N-terminal beta-alanine; VARIANT 1 beta-A) [ADGN-100]", "values": [
      {"measurement": "luciferase expression and tissues", "setting": "[2]", "result": "mainly observed in the liver and at lower level in the lung and the kidney"},
      {"measurement": "luciferase expression", "setting": "[1]", "result": "high level of luciferase expression"},
      {"measurement": "reduction of efficiency / luciferase expression in the presence of serum", "setting": "[1]", "result": 90, "unit": "%"},
      {"measurement": "reduction of efficiency / luciferase expression in heparan sulfate", "setting": "[1]", "result": 50, "unit": "%"}
    ]}
  ]
}
